Assays:
NosK = target: T1, NosK (Streptomyces actuosus, UniProt C6FX50); assay: thioester hydrolysis, HPLC UV […] nm; format: biochemical; details: CoA thioester hydrolysed
T1 construct: expressed in E. coli, purified

NosI = NosI (Streptomyces actuosus, UniProt C6FX48); assay: LC-HR-MS detection of MIA-AMP ([…]); format: biochemical
Chain of NosI (C6FX48 entry or part of it): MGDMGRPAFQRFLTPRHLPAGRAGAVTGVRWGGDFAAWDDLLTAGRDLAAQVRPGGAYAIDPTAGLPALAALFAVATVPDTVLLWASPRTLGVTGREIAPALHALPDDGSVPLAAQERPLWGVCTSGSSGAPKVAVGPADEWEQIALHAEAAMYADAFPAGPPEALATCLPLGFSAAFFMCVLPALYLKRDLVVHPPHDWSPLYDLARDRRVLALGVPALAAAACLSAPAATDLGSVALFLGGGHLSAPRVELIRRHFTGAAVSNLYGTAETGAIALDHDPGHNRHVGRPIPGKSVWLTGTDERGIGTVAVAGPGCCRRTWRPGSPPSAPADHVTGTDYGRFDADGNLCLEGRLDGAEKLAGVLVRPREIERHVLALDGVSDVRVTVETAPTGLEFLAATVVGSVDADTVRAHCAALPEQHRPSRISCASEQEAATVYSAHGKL

T1 sequence (C6FX50 entry or part of it): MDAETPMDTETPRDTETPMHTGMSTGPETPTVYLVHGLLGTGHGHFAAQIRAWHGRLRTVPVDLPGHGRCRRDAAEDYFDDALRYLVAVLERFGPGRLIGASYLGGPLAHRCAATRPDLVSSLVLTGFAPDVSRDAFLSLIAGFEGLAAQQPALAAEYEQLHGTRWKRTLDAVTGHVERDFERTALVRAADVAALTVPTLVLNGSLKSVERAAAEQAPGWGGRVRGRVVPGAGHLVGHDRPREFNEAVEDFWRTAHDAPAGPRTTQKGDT

SMILES	thioester hydrolysis, HPLC UV 300 nm (NosK)	other results
Cc1cccc2[nH]c(C(=O)SCCNC(=O)CCNC(=O)[C@H](O)C(C)(C)COP(=O)(O)OP(=O)(O)OC[C@H]3O[C@@H](n4cnc5c(N)ncnc54)[C@H](O)[C@@H]3OP(=O)(O)O)c(C)c12 [DMIA-CoA]	NosK also hydrolyzes the CoA-bound MIA and DMIA thioesters with comparative efficiencies	–
Cc1c(C(=O)SCCNC(=O)CCNC(=O)[C@H](O)C(C)(C)COP(=O)(O)OP(=O)(O)OC[C@H]2O[C@@H](n3cnc4c(N)ncnc43)[C@H](O)[C@@H]2OP(=O)(O)O)[nH]c2ccccc12 [MIA-CoA]	NosK also hydrolyzes the CoA-bound MIA and DMIA thioesters with comparative efficiencies	–
Cc1c(C(=O)O)[nH]c2ccccc12 [compound 3, 3-methyl-2-indolic acid]	–	LC-HR-MS detection of MIA-AMP (4) (NosI; ATP co-substrate, MIA adenylated, then transferred to pantetheine or holo-NosJ): LC-HR-MS analysis of the reaction mixture containing NosI, MIA and ATP clearly showed the production
Nc1ncnc2c1ncn2[C@@H]1O[C@H](COP(=O)(O)OP(=O)(O)OP(=O)(O)O)[C@@H](O)[C@H]1O [ATP]	–	LC-HR-MS detection of MIA-AMP (4) (NosI; MIA co-substrate): LC-HR-MS analysis of the reaction mixture containing NosI, MIA and ATP clearly showed the production

— publication PMC5585349, “Biosynthesis of the nosiheptide indole side ring centers on a cryptic carrier protein NosJ” (Nature Communications, 2017)
